# Experimental data: US8709405B2, “Cancer vaccines containing epitopes of oncofetal antigen” (South Alabama Medical Science Foundation, priority 2002, dated 2014)
# Assays:
# Assay type in all cases: cell-based, BALB/c mouse
# [1] = test system: iLRP-specific Th1, Tc, and Ts clones; test: BUdR incorporation proliferation assay, comparison across iLRP-specific T cell clone types; settings: Table 14; type of T cell clone reactive with the 12-mer
# Experimental: (§1) The epitopes recognized by 15 iLRP-reactive T cell clones derived from either naive BALB/c mice, BALB/c mice bearing MCA1315 fibrosarcoma tumors, or from BALB/c mice immunized with either 1 or 10 μg of recombinant murine iLRP were determined by testing the proliferation of those clones to overlapping peptides spanning the region of the iLRP molecule recognized by each clone in the presence of IL-2, as a growth factor for T cells and irradiated, T cell-depleted, syngeneic spleen cells as antigen-presenting cells. Proliferation was measured through ELISA determination of 5-bromodeoxyuridine incorporation during culture.
# (§2) More specifically, the epitope-specificity of the iLRP-specific Th1, Tc, and Ts clones was determined using a modification of the 5′-bromodeoxyuridine (BudR) incorporation ELISA technique described in Rohrer, J. W., A. L. Barsoum, D. L. Dyess, J. A. Tucker, and J. H. Coggin, Jr. 1999. Human breast carcinoma patients develop clonable oncofetal antigen-specific effector and regulatory T lymphocytes. J. Immunol. 162:6880, using the Biotrak BUdR incorporation assay (Amersham, Arlington Heights, Ill.). Briefly, at the time of restimulation of the clones, a portion of the cloned T cells were assayed for proliferation to antigen-presenting cells (APC) and various iLRP peptides. The assay was performed with 10,000 viable cloned T cells/well plus […] irradiated syngeneic spleen cells (APC) plus 100 ng/well of intact iLRP/OFA protein or the various truncated iLRP/OFA proteins or the various iLRP/OFA peptides in Iscove's modified Dulbecco's medium (IMDM) containing 2 mM L-glutamine, 100 U/ml of penicillin G, 100 μg of streptomycin sulfate, and 10% fetal calf serum. The cells were cultured for a total of 48 hours. After 24 hours of culture 5′-bromodeoxyuridine was added to a final concentration of 10 μM/well. The cells were cultured for another 24 hours. At the end of the last 24 hours of incubation, the plates were centrifuged at 300×g for 10 min, and the labelling medium removed. The cells were then dried at 60° C. for 1 hour. The cells were fixed with an ethanol fixative provided in the Biotrak kit for 30 min at room temperature, fixative was removed, and the wells were coated with blocking buffer (1% protein in 50 mM Tris-HCl, 150 mM NaCl, pH 7.4) and incubated for 30 min at room temperature. The blocking buffer was removed, 100 μl of 1:100 diluted peroxidase-labelled anti-BUdR antibody was added to each well and the plates were incubated for 90 min at room temperature. The antibody solution was removed, and the wells washed three times with 300 μl/well of wash buffer. 200 μl of 3,3′, 5,5′-tetramethylbenzidine in […] DMSO was added to each well and the plate was covered and incubated at room temperature while oscillating gently for 5-30 min. When the required color density was reached, the reaction was stopped by adding 25 μl of 1M sulfuric acid to each well and the plate read on a microELISA reader at 450 nm.
# (§3) Each time the assay was done, clones were stimulated by APC and intact iLRP/OFA as a positive control. Cloned T cells were also cultured in the presence of only APC in IMDM or in the presence of APC and an iLRP/OFA peptide or truncated iLRP/OFA known not to stimulate the clones being tested. These served as negative controls. In wells where BUdR was incorporated (the iLRP/OFA stimulates proliferation of the T cells), the A450 was at least 10-fold and often approximately 50-fold higher than the negative controls. Because the Ts cells always presented with apparently low affinity T cell antigen receptors, their BUdR incorporation gave A450 values about 10 times higher than the negative controls (e.g., about 0.2 vs. 0.02), but about 5 times lower than the Th1 or Tc clones (e.g., usually about 0.9).
# Determination of the portion of the truncated iLRP/OFA protein or peptide reacted to by a given clone was done by analysis of the proliferation pattern to the various truncated proteins or peptides. […]
# [2] = test system: iLRP-specific T cell clone H2 (Ts); test: BUdR incorporation ELISA proliferation assay, Ts clone H2; settings: for BudR Incorporation (A450), T cell clone H2 (Ts): Table 8, overlapping 12-mers of iLRP 136-166, 100 U/ml IL-2; for Proliferation of Ts clone H2 (in words): text on Table 8
# Experimental: as §1, §2
# as §3, with “0.9). […]” for “0.9).”
# [3] = test system: iLRP-specific T cell clone H4 (Ts); test: BUdR incorporation ELISA proliferation assay, Ts clone H4; settings: for BudR Incorporation (A450), T cell clone H4 (Ts): Table 8, overlapping 12-mers of iLRP 136-166, 100 U/ml IL-2; for Proliferation of Ts clone H4 (in words): text on Table 8
# Experimental: as §1, §2
# as §3, with “0.9). […]” for “0.9).”
# [4] = test system: iLRP-specific T cell clone L5 (Tc); test: BUdR incorporation ELISA proliferation assay, Tc clone L5; settings: for BudR Incorporation (A450), T cell clone L5 (Tc): Table 8, overlapping 12-mers of iLRP 136-166, 100 U/ml IL-2; for Proliferative response of Tc clone L5 (in words): text on Table 8
# Experimental: as §1, §2
# as §3, with “0.9). […]” for “0.9).”
# [5] = test system: iLRP-specific T cell clone L4 (Tc); test: BUdR incorporation ELISA proliferation assay, Tc clone L4; settings: for BudR Incorporation (A450), T cell clone L4 (Tc): Table 8, overlapping 12-mers of iLRP 136-166, 100 U/ml IL-2; for Proliferation of Tc clone L4 (in words): text on Table 8
# Experimental: as §1, §2
# as §3, with “0.9). […]” for “0.9).”
# [6] = test system: iLRP-specific T cell clone H3 (Th1); test: BUdR incorporation ELISA proliferation assay, Th1 clone H3; settings: for BudR Incorporation (A450), T cell clone H3 (Th1): Table 8, overlapping 12-mers of iLRP 136-166, 100 U/ml IL-2; for Response of Th1 clone H3 (in words): text on Table 8
# Experimental: as §1, §2
# as §3, with “0.9). […]” for “0.9).”
# [7] = test system: CD8 iLRP-specific T cell clone L6 (Tc); test: BUdR incorporation ELISA proliferation assay, Tc clone L6; settings: Table 5
# Experimental: as §1
# More specifically, the epitope-specificity of the iLRP-specific Th1, Tc, and Ts clones was determined using a modification of the 5′-bromodeoxyuridine (BudR) incorporation ELISA technique described in Rohrer, J. W., A. L. Barsoum, D. L. Dyess, J. A. Tucker, and J. H. Coggin, Jr. 1999. Human breast carcinoma patients develop clonable oncofetal antigen-specific effector and regulatory T lymphocytes. J. Immunol. 162:6880, using the Biotrak BUdR incorporation assay (Amersham, Arlington Heights, Ill.). Briefly, at the time of restimulation of the clones, a portion of the cloned T cells were assayed for proliferation to antigen-presenting cells (APC) and various iLRP peptides. The assay was performed with 10,000 viable cloned T cells/well plus […] irradiated syngeneic spleen cells (APC) plus 100 ng/well of intact iLRP/OFA protein or the various truncated iLRP/OFA proteins or the various iLRP/OFA peptides in Iscove's modified Dulbecco's medium (IMDM) containing 2 mM L-glutamine, 100 U/ml of penicillin G, 100 μg of streptomycin sulfate, and 10% fetal calf serum. The cells were cultured for a total of 48 hours. After 24 hours of culture 5′-bromodeoxyuridine was added to a final concentration of 10 μM/well. The cells were cultured for another 24 hours. […] When the required color density was reached, the reaction was stopped by adding 25 μl of 1M sulfuric acid to each well and the plate read on a microELISA reader at 450 nm. […]
# [8] = test system: iLRP-specific T cell clone L1 (CD8 Ts); test: BUdR incorporation ELISA proliferation assay, Ts clone L1; settings: Table 3; for BUdR Incorporation (A450) of iLRP-specific T cell clone L1 cells, Expt. 1 / BUdR Incorporation (A450) of iLRP-specific T cell clone L1 cells, Expt. 2: 100 ng/well stimulant with irradiated syngeneic spleen cells (APC), 48 h culture
# Experimental: as §1, §2, §3
# Overlapping 12mer peptides of the first 25 amino acids of murine iLRP were produced. Thus, peptides 1-4 corresponded to amino acid residues 1-12, 5-16, 9-20 and 17-28 of murine iLRP. […]
# [9] = test system: CD8 T cell clone H5 (Ts); test: BUdR incorporation ELISA proliferation assay, Ts clone H5; settings: Table 4
# Experimental: as §1
# More specifically, the epitope-specificity of the iLRP-specific Th1, Tc, and Ts clones was determined using a modification of the 5′-bromodeoxyuridine (BudR) incorporation ELISA technique described in Rohrer, J. W., A. L. Barsoum, D. L. Dyess, J. A. Tucker, and J. H. Coggin, Jr. 1999. Human breast carcinoma patients develop clonable oncofetal antigen-specific effector and regulatory T lymphocytes. J. Immunol. 162:6880, using the Biotrak BUdR incorporation assay (Amersham, Arlington Heights, Ill.). […] When the required color density was reached, the reaction was stopped by adding 25 μl of 1M sulfuric acid to each well and the plate read on a microELISA reader at 450 nm. […]
# [10] = Table 7, stimulated by a.a.'s 136-166 sequence or controls
Substance,Reactive T cell clones [1],"BudR Incorporation (A450), T cell clone H2 (Ts) [2]","BudR Incorporation (A450), T cell clone H4 (Ts) [3]","BudR Incorporation (A450), T cell clone L5 (Tc) [4]","BudR Incorporation (A450), T cell clone L4 (Tc) [5]","BudR Incorporation (A450), T cell clone H3 (Th1) [6]","BUdR Incorporation (A450) of iLRP-specific T cell clone L1 cells, Expt. 1 [8]","BUdR Incorporation (A450) of iLRP-specific T cell clone L1 cells, Expt. 2 [8]",also measured
CNTDSPLRYVDI [Peptide 31-4],Tc & TH1,.016 A450,.016 A450,.89 A450,.023 A450,.81 A450,–,–,Proliferative response of Tc clone L5 (in words) [4]: equal proliferative response; Response of Th1 clone H3 (in words) [6]: slightly lower response
EASYVNLPTIAL [Peptide 31-1],Ts,.23 A450,.22 A450,.017 A450,.015 A450,.016 A450,–,–,Proliferation of Ts clone H2 (in words) [2]: proliferated equally; Proliferation of Ts clone H4 (in words) [3]: proliferated equally
ISSRNTGQRAVL [P14 (aa 77-88)],–,–,–,–,–,–,–,–,Proliferation of clone L6 (in words) [7]: proliferated equally well
KLLAAGTHLGGT [Peptide 4],–,–,–,–,–,–,.28 A450,.27 A450,Proliferation of clone L1 (in words) [8]: proliferates to a peptide contained almost entirely in peptide 4
LDVLQMKEEDVL [Peptide 2],–,–,–,–,–,–,.017 A450,.019 A450,–
MSGALDVLQMKE [Peptide 1],–,–,–,–,–,–,.018 A450,.020 A450,–
NTGQRAVLKFAA [P15 (aa 81-92)],–,–,–,–,–,–,–,–,Proliferation of clone L6 (in words) [7]: proliferated equally well
"P10 (aa 61-72): iLRP 12-mer peptide, amino acids 61-72 (AARAIVAIENPA)",–,–,–,–,–,–,–,–,"BUdR incorporation, CD8 iLRP-specific T cell clone L6 (Tc) ([7]; 100 ng/well stimulant with APC, two values given): .017, .017 A450"
QMEQYIYKRKSD [P3 (aa 33-44)],–,–,–,–,–,–,–,–,Proliferation of clone H5 (in words) [9]: proliferated to iLRP peptides 3 and 4 equally well
QMKEEDVLKLLAA [Peptide 3],–,–,–,–,–,–,.09 A450,.07 A450,Proliferation of clone L1 (in words) [8]: does react somewhat
SPLRYVDIAIPC [Peptide 31-5],Tc & TH1,.016 A450,.016 A450,.024 A450,.91 A450,.95 A450,–,–,Proliferation of Tc clone L4 (in words) [5]: proliferated to peptides 31-5 and 31-6 equally; Response of Th1 clone H3 (in words) [6]: strongest response
TIALCNTDSPLR [Peptide 31-3],Tc,.015 A450,.017 A450,.90 A450,.016 A450,.016 A450,–,–,Proliferative response of Tc clone L5 (in words) [4]: equal proliferative response
VNLPTIALCNTD [Peptide 31-2],Ts,.22 A450,.24 A450,.016 A450,.018 A450,.015 A450,–,–,Proliferation of Ts clone H2 (in words) [2]: proliferated equally; Proliferation of Ts clone H4 (in words) [3]: proliferated equally
YIYKRKSDGTYI [P4 (aa 37-48)],–,–,–,–,–,–,–,–,Proliferation of clone H5 (in words) [9]: proliferated to iLRP peptides 3 and 4 equally well
YVDIAIPCNNKG [Peptide 31-6],Tc,.015 A450,.016 A450,.015 A450,.90 A450,.03 A450,–,–,Proliferation of Tc clone L4 (in words) [5]: proliferated to peptides 31-5 and 31-6 equally
"iLRP truncated protein 13: truncated iLRP protein, a.a.'s 242-295; negative control",–,.017 A450,.018 A450,.016 A450,.017 A450,.015 A450,.016 A450,.014 A450,"BUdR incorporation (A450), clone H2 (Ts) [2, 10]: .015 A450; BUdR incorporation (A450), clone H4 (Ts) [3, 10]: .016 A450; BUdR incorporation (A450), clone L5 (Tc) [4, 10]: .015 A450; BUdR incorporation (A450), clone L4 (Tc) [5, 10]: .017 A450; BUdR incorporation (A450), clone H3 (Th1) [6, 10]: .017 A450"
